The source of these data is paper PMC3836906 (Cancer chemotherapy and pharmacology, 2013).

Where “and” joins values, the source holds several entries; their conditions need not be identical. Equal values may be shown once. Read-outs that look alike come from different tables or passages of the source.

In series [1] the test system is mice. The note with it: mouse, in vivo.
For another series, the system named is RBC ALDH. The conditions noted are these: mouse, in vivo, ip, 300 mg/kg; cited from earlier work.
For series [2] the following is noted: mouse, in vivo.
A further series relates to ALDH1B1. The note with it: cited from earlier work.
Another series has as its system liver ALDH. The conditions noted are these: mouse, in vivo, ip, 300 mg/kg; cited from earlier work.
In series [3] the test system is human RXF-393 renal carcinoma cell xenografts. The conditions noted are these: mouse, in vivo; cited from earlier work.
The subject of series [4] is A498 human renal cell cancer xenografts. The conditions noted are these: in vivo; cited from earlier work.
Series [5] has as its system human ACHN renal cell tumors. The conditions noted are these: mouse, in vivo; cited from earlier work.
For series [6] the following is noted: in vivo.
Series [7] can be described thus: in vivo. The note with it: CD2F1, mouse, iv, 20 mg/kg.
Another series deals with renal carcinoma cells. The conditions noted are these: cited from earlier work.
Series [8] in a line: in vivo. The conditions noted are these: CD2F1, mouse, iv, 20 mg/kg. This is another data set of the same source.
Series [9] concerns human 786-0 renal cell tumors. The note with it: mouse, in vivo; cited from earlier work.
The test system of the next series is cell cycle. The note with it: cited from earlier work.
The subject of series [10] is mice. The conditions noted are these: mouse, in vivo. This is another data set of the same source.

For orientation: Tmax means the time at which the peak concentration occurs. One may read the Vd/F as the volume of distribution divided by bioavailability. The half-life is the time in which the quantity being followed falls by half.

Take `CCN(CC)C(=S)SSC(=S)N(CC)CC` [disulfiram, Tetraethylthiuram disulfide]: the Hepatic pathology result in the series on mice [1] is reported as “mild hepatic lesions”. Moreover, in the series with RBC ALDH, the “Reduction of ALDH activity in RBC compared to controls” value was 81%. In [2], the Body weight loss entry is given as “approximately 12%”. The “Sensitivity of ALDH1B1 to inhibition” value with ALDH1B1 is given as “insensitive to inhibition”. Moreover, the “Reduction of ALDH activity in liver compared to controls” value with liver ALDH was 27%.
In the case of `CS(=O)(=O)OCCCCOS(C)(=O)=O` [busulfan, reference compound], the Anti-tumor activity entry in series [3] is recorded as “no activity”.
As to `Cc1cc(N(CCOS(C)(=O)=O)CCOS(C)(=O)=O)ccc1C=O` [BEN, 4-[bis[2-[(methylsulfonyl)-oxy]ethyl]amino]-2-methyl-benzaldehyde], the “Effect on xenograft growth” value in series [4] is given as “slowed the growth”. For the same compound, in [5], the Anti-tumor activity result is listed as “significant activity”. The Cure rate in series [3] was more than 70%. Further, the Body weight loss result in [2] is listed as “approximately 12%”. Moreover, in series [6] (CD2F1, mouse), the “Increase of BEN plasma exposure by disulfiram pretreatment” value amounted to 368 fold and the “Time after administration at which analyte became undetectable in plasma” value is 15 min. Moreover, in series [6] (CD2F1, mouse, iv, 20 mg/kg), the Cl/F stood at 0.18 mL/min/kg, the Tmax amounted to 5 min and the Vd/F amounted to 120 L/kg. The compound further displayed a CL renal in the series “in vivo [7]” of 0.4 mL/min. For the same compound, the “Activity in NCI 60 cell line screen” value with renal carcinoma cells was “specific activity”. Besides, the time of peak concentration (Tmax) in “in vivo [8]” (in vivo) is 5 min. In addition, the Anti-tumor activity entry in series [9] is reported as “significant activity”. In addition, in the series on cell cycle, the Cell cycle effect entry is “S and G2/M cell cycle arrest”. Moreover, in the series with mice [10], the “Day after dosing by which blood values returned to normal” value is not above 14 days; the “Effect of disulfiram pretreatment on percentage lymphocytes nadir” value is given as “appeared to deepen”; the “Hematocrits, white blood cells and percent lymphocytes following treatment” value is “decreased”.
With `Cc1cc(N(CCO)CCO)ccc1C(=O)O` [BA-(OH)2, 4-[bis[2-hydroxy-ethyl]amino]-2-methyl-benzoic acid], in series [6] (mouse), the Cl/F is 1.90 mL/min/kg and 1.20 mL/min/kg; the Tmax amounted to 10 min; the Vd/F was 83 L/kg and 60 L/kg. Besides, in the series “in vivo [8]” (plasma), the Tmax was 10 min. Moreover, in the series “in vivo [8]” (plasma, Half-life, BEN 20 mg/kg iv alone), the half-life is 29 min.
